Reference: US20230278972A1, “SUBSTITUTED HALOALKYL SULFONANILIDE HERBICIDES” (FMC Corporation, priority 2020, published 2023)

Columns and labels:
Assay type in all cases: in vivo
[1] = system: ragweed (common ragweed, Ambrosia artemisiifolia); assay: Test A preemergence, ragweed; details: Preemergence; for Ragweed plant response rating: 125 g ai/ha, visual injury on 0 to 100 scale (0 no effect, 100 complete control), approximately 10 days; for Plant response rating, Ragweed: 500 g ai/ha, 0 to 100 scale (0 no effect, 100 complete control)
Procedure, shortened: (§1)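 Compounds in non-phytotoxic solvent with surfactant. Soil: loam/sand. Preemergence via directed soil spray after seeding; postemergence on seedlings 2–10 cm, one- to two-leaf.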

[2] = system: pigweed (Amaranthus retroflexus); assay: Test A preemergence, pigweed; details: for Pigweed plant response rating: 125 g ai/ha, visual injury on 0 to 100 scale (0 no effect, 100 complete control), approximately 10 days; for Plant response rating, Pigweed: 500 g ai/ha, 0 to 100 scale (0 no effect, 100 complete control)
Procedure, shortened: (§2)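 After sowing into a sand-amended loam, pots for the preemergence test were treated by spraying directly onto soil. In parallel, seedlings at the one- to two-leaf stage and 2 to 10 cm tall were treated postemergence with the identical surfactant-containing formulation.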

[3] = system: pigweed (Amaranthus retroflexus); assay: Test A postemergence, pigweed; details: Postemergence, 0 to 100 scale (0 no effect, 100 complete control); for Plant response rating, Pigweed: 125 g ai/ha, visual injury approx. 10 days; for Pigweed plant response rating: 500 g ai/ha, visual injury vs untreated controls after approx. 10 days
Procedure, shortened: as §1

[4] = system: Ryegrass, Italian (Italian ryegrass, Lolium multiflorum); assay: Test A preemergence, Ryegrass, Italian; details: Preemergence; for Ryegrass, Italian plant response rating: 125 g ai/ha, visual injury on 0 to 100 scale (0 no effect, 100 complete control), approximately 10 days; for Plant response rating, Ryegrass, Italian: 500 g ai/ha, 0 to 100 scale (0 no effect, 100 complete control)
Procedure, shortened: as §1

[5] = system: barnyardgrass (Echinochloa crus-galli); assay: Test A postemergence, barnyardgrass; details: Postemergence, 0 to 100 scale (0 no effect, 100 complete control); for Plant response rating, Barnyardgrass: 125 g ai/ha, visual injury approx. 10 days; for Barnyardgrass plant response rating: 500 g ai/ha, visual injury vs untreated controls after approx. 10 days
Procedure, shortened: as §2

[6] = system: Ryegrass, Italian (Italian ryegrass, Lolium multiflorum); assay: Test A postemergence, Ryegrass, Italian; details: Postemergence, 0 to 100 scale (0 no effect, 100 complete control); for Plant response rating, Ryegrass, Italian: 125 g ai/ha, visual injury approx. 10 days; for Ryegrass, Italian plant response rating: 500 g ai/ha, visual injury vs untreated controls after approx. 10 days
Procedure, shortened: as §1

[7] = system: corn (Zea mays); assay: Test A postemergence, corn; details: Postemergence, 0 to 100 scale (0 no effect, 100 complete control); for Plant response rating, Corn: 125 g ai/ha, visual injury approx. 10 days; for Corn plant response rating: 500 g ai/ha, visual injury vs untreated controls after approx. 10 days
Procedure, shortened: as §1

[8] = system: blackgrass (Alopecurus myosuroides); assay: Test A postemergence, blackgrass; details: Postemergence, 0 to 100 scale (0 no effect, 100 complete control); for Plant response rating, Blackgrass: 125 g ai/ha, visual injury approx. 10 days; for Blackgrass plant response rating: 500 g ai/ha, visual injury vs untreated controls after approx. 10 days
Procedure, shortened: as §1

[9] = system: ragweed (common ragweed, Ambrosia artemisiifolia); assay: Test A postemergence, ragweed; details: Postemergence, 0 to 100 scale (0 no effect, 100 complete control); for Plant response rating, Ragweed: 125 g ai/ha, visual injury approx. 10 days; for Ragweed plant response rating: 500 g ai/ha, visual injury vs untreated controls after approx. 10 days
Procedure, shortened: as §1

[10] = system: Foxtail, Giant (giant foxtail, Setaria faberi); assay: Test A postemergence, Foxtail, Giant; details: Postemergence, 0 to 100 scale (0 no effect, 100 complete control); for Plant response rating, Foxtail, Giant: 125 g ai/ha, visual injury approx. 10 days; for Foxtail, Giant plant response rating: 500 g ai/ha, visual injury vs untreated controls after approx. 10 days
Procedure, shortened: as §1

[11] = system: kochia (Bassia scoparia); assay: Test A postemergence, kochia; details: Postemergence, 0 to 100 scale (0 no effect, 100 complete control); for Plant response rating, Kochia: 125 g ai/ha, visual injury approx. 10 days; for Kochia plant response rating: 500 g ai/ha, visual injury vs untreated controls after approx. 10 days
Procedure, shortened: as §1

[12] = system: wheat (Triticum aestivum); assay: Test A postemergence, wheat; details: Postemergence, 0 to 100 scale (0 no effect, 100 complete control); for Plant response rating, Wheat: 125 g ai/ha, visual injury approx. 10 days; for Wheat plant response rating: 500 g ai/ha, visual injury vs untreated controls after approx. 10 days
Procedure, shortened: as §2

[13] = system: barnyardgrass (Echinochloa crus-galli); assay: Test A preemergence, barnyardgrass; details: Preemergence; for Barnyardgrass plant response rating: 125 g ai/ha, visual injury on 0 to 100 scale (0 no effect, 100 complete control), approximately 10 days; for Plant response rating, Barnyardgrass: 500 g ai/ha, 0 to 100 scale (0 no effect, 100 complete control)
Procedure, shortened: as §1

[14] = system: galium (catchweed bedstraw, Galium aparine); assay: Test A postemergence, galium; details: Postemergence, 0 to 100 scale (0 no effect, 100 complete control); for Plant response rating, Galium: 125 g ai/ha, visual injury approx. 10 days; for Galium plant response rating: 500 g ai/ha, visual injury vs untreated controls after approx. 10 days
Procedure, shortened: as §2

[15] = system: kochia (Bassia scoparia); assay: Test A preemergence, kochia; details: Preemergence; for Kochia plant response rating: 125 g ai/ha, visual injury on 0 to 100 scale (0 no effect, 100 complete control), approximately 10 days; for Plant response rating, Kochia: 500 g ai/ha, 0 to 100 scale (0 no effect, 100 complete control)
Procedure, shortened: as §1

[16] = system: Foxtail, Giant (giant foxtail, Setaria faberi); assay: Test A preemergence, Foxtail, Giant; details: Preemergence; for Foxtail, Giant plant response rating: 125 g ai/ha, visual injury on 0 to 100 scale (0 no effect, 100 complete control), approximately 10 days; for Plant response rating, Foxtail, Giant: 500 g ai/ha, 0 to 100 scale (0 no effect, 100 complete control)
Procedure, shortened: as §1

| SMILES | Ragweed plant response rating [1] | Plant response rating, Ragweed [1] | Pigweed plant response rating [2] | Plant response rating, Pigweed [2] | Plant response rating, Pigweed [3] | Pigweed plant response rating [3] | Ryegrass, Italian plant response rating [4] | Plant response rating, Ryegrass, Italian [4] | Plant response rating, Barnyardgrass [5] | Barnyardgrass plant response rating [5] | Plant response rating, Ryegrass, Italian [6] | Ryegrass, Italian plant response rating [6] | Plant response rating, Corn [7] | Corn plant response rating [7] | Plant response rating, Blackgrass [8] | Blackgrass plant response rating [8] | Plant response rating, Ragweed [9] | Ragweed plant response rating [9] | Plant response rating, Foxtail, Giant [10] | Foxtail, Giant plant response rating [10] | also measured |
| --- | --- | --- | --- | --- | --- | --- | --- | --- | --- | --- | --- | --- | --- | --- | --- | --- | --- | --- | --- | --- | --- |
| CC(=O)N(c1cc(-c2ccnn(C)c2=O)c(C)cc1C)S(=O)(=O)C(F)(F)F [Compound 56] | 70 | 90 | 40 | 90 | 40 | 40 | 100 | 100 | 90 | 90 | 0 | 80 | 10 | 80 | 50 | 50 | 60 | 90 | 90 | 90 | Plant response rating, Kochia [11]: 50; Kochia plant response rating [11]: 60; Plant response rating, Wheat [12]: 50; Wheat plant response rating [12]: 70; Barnyardgrass plant response rating [13]: 100; Plant response rating, Barnyardgrass [13]: 100; Plant response rating, Galium [14]: 90; Galium plant response rating [14]: 90; Kochia plant response rating [15]: 40; Plant response rating, Kochia [15]: 100; Foxtail, Giant plant response rating [16]: 0; Plant response rating, Foxtail, Giant [16]: 20 |
| Cc1cc(C)c(-c2ccnn(CC(F)(F)F)c2=O)cc1NS(=O)(=O)C(F)(F)F [Compound 57] | 40 | 70 | 50 | 80 | 0 | 50 | 90 | 90 | 40 | 90 | 30 | 90 | 30 | 80 | 0 | 70 | 0 | 30 | 30 | 90 | Plant response rating, Kochia [11]: 0; Kochia plant response rating [11]: 20; Plant response rating, Wheat [12]: 60; Wheat plant response rating [12]: 70; Barnyardgrass plant response rating [13]: 100; Plant response rating, Barnyardgrass [13]: 100; Plant response rating, Galium [14]: 80; Galium plant response rating [14]: 90; Kochia plant response rating [15]: 60; Plant response rating, Kochia [15]: 60; Foxtail, Giant plant response rating [16]: 100; Plant response rating, Foxtail, Giant [16]: 100 |
| CCCn1nccc(-c2cc(NS(=O)(=O)C(F)(F)F)c(C)cc2C)c1=O [Compound 58] | 0 | 0 | 0 | 50 | 0 | 0 | 70 | 100 | 20 | 90 | 0 | 60 | 20 | 50 | 0 | 30 | 0 | 20 | 30 | 90 | Plant response rating, Kochia [11]: 0; Kochia plant response rating [11]: 20; Plant response rating, Wheat [12]: 20; Wheat plant response rating [12]: 70; Barnyardgrass plant response rating [13]: 100; Plant response rating, Barnyardgrass [13]: 100; Plant response rating, Galium [14]: 80; Galium plant response rating [14]: 90; Kochia plant response rating [15]: 0; Plant response rating, Kochia [15]: 80; Foxtail, Giant plant response rating [16]: 100; Plant response rating, Foxtail, Giant [16]: 100 |
| Cc1ccc(-c2ccnn(C)c2=O)cc1NS(=O)(=O)C(F)(F)F [Compound 59] | 0 | 30 | 30 | 60 | 0 | 60 | 0 | 60 | 0 | 80 | 0 | 60 | 10 | 40 | 0 | 70 | 20 | 60 | 10 | 70 | Plant response rating, Kochia [11]: 50; Kochia plant response rating [11]: 70; Plant response rating, Wheat [12]: 0; Wheat plant response rating [12]: 40; Barnyardgrass plant response rating [13]: 0; Plant response rating, Barnyardgrass [13]: 90; Plant response rating, Galium [14]: 80; Galium plant response rating [14]: 90; Kochia plant response rating [15]: 40; Plant response rating, Kochia [15]: 90; Foxtail, Giant plant response rating [16]: 20; Plant response rating, Foxtail, Giant [16]: 70 |
| COc1ccnn(-c2cc(NS(=O)(=O)C(F)(F)F)c(C)cc2C)c1=O [Compound 60] | 30 | 70 | 100 | 100 | 80 | 90 | 80 | 90 | 70 | 70 | 70 | 80 | 10 | 60 | 40 | 70 | 50 | 70 | 60 | 90 | Plant response rating, Kochia [11]: 40; Kochia plant response rating [11]: 80; Plant response rating, Wheat [12]: 50; Wheat plant response rating [12]: 70; Barnyardgrass plant response rating [13]: 90; Plant response rating, Barnyardgrass [13]: 90; Plant response rating, Galium [14]: 90; Galium plant response rating [14]: 90; Kochia plant response rating [15]: 90; Plant response rating, Kochia [15]: 90; Foxtail, Giant plant response rating [16]: 80; Plant response rating, Foxtail, Giant [16]: 90 |
